Data taken from ChEMBL document CHEMBL1132035, “Guanidine-substituted imidazoles as inhibitors of nitric oxide synthase” (Bioorg Med Chem Lett, 1999).

How the values were obtained:
[1] = molecular target: T1, Nitric oxide synthase, inducible (Mus musculus, UniProt P29477); test: Inhibition of purified mouse inducible nitric oxide synthase catalyzed [14C]L-citrulline production at a compound concentration of 1 mM in presence of 50 uM L-arginine
T1 sequence (P29477 whole entry): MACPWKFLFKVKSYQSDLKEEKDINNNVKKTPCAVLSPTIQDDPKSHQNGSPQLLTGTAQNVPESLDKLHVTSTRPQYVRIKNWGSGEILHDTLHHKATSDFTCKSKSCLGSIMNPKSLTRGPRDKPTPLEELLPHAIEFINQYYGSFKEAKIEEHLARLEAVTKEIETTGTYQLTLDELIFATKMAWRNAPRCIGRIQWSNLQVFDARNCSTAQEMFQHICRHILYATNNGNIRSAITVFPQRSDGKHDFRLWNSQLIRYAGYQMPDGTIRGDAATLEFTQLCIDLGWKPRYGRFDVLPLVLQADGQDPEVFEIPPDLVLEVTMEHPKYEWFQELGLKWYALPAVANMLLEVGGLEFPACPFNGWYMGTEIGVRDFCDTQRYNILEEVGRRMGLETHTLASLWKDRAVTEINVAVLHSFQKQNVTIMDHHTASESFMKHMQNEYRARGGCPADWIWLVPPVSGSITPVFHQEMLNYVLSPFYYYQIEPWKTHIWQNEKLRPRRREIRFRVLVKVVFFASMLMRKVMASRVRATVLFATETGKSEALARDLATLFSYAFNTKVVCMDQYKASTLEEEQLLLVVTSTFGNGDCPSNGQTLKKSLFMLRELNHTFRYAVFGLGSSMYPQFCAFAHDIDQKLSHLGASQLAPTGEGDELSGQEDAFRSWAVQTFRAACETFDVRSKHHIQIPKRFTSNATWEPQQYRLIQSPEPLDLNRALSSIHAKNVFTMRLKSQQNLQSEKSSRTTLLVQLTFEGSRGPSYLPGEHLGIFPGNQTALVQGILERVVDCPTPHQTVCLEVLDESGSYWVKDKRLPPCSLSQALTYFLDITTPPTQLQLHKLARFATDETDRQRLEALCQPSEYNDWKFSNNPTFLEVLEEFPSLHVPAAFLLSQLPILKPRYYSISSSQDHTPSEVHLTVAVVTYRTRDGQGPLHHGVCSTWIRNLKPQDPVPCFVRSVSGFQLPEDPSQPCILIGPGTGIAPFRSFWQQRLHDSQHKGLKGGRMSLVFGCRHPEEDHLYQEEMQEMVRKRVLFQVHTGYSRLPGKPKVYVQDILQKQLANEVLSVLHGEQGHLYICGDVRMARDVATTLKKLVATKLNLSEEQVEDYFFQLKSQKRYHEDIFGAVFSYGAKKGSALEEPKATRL

Nitric oxide synthase 3 [2] = molecular target: T2, Nitric oxide synthase 3 (Bos taurus, UniProt P29473); test: Compound was evaluated as nitric oxide producing substrate of bovine Endothelial nitric oxide synthase using the Griess assay; NA means Not active
T2 sequence (P29473 whole entry): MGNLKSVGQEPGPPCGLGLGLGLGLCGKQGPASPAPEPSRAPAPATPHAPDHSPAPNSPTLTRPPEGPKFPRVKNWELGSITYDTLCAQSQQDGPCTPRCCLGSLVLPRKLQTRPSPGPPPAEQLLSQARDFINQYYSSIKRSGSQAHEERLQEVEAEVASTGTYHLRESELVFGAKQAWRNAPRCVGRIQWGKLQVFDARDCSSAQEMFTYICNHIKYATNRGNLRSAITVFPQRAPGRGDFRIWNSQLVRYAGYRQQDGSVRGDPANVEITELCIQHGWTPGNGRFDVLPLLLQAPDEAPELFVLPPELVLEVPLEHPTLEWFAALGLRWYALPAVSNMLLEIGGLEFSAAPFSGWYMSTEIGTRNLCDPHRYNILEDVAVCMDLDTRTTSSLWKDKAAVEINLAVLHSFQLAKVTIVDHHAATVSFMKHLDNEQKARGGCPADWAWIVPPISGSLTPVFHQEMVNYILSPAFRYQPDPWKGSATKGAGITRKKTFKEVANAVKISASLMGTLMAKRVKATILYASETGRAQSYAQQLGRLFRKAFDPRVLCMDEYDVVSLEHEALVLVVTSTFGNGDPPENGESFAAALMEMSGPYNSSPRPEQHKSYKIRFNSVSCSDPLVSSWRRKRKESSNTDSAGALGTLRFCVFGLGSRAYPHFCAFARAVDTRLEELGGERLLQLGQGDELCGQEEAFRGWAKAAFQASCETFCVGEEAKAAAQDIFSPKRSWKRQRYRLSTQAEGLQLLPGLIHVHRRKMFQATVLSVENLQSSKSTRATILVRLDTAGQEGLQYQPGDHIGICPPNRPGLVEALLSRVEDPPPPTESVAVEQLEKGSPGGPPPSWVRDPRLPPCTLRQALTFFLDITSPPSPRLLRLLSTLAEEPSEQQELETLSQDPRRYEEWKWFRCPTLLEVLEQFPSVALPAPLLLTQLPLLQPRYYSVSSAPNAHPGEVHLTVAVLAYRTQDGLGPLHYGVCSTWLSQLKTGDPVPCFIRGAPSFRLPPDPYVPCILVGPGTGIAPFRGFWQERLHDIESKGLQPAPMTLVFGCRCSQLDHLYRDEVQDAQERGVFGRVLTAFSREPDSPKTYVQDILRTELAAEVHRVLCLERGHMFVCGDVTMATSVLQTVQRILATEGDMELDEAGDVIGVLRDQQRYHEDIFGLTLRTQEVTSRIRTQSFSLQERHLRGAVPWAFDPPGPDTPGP

Nitric oxide synthase 1 [3] = molecular target: T3, Nitric oxide synthase 1 (Rattus norvegicus, UniProt P29476); test: Compound was evaluated as nitric oxide producing substrate of rat Neuronal nitric oxide synthase using the Griess assay; NA means Not active
T3 sequence (P29476 whole entry): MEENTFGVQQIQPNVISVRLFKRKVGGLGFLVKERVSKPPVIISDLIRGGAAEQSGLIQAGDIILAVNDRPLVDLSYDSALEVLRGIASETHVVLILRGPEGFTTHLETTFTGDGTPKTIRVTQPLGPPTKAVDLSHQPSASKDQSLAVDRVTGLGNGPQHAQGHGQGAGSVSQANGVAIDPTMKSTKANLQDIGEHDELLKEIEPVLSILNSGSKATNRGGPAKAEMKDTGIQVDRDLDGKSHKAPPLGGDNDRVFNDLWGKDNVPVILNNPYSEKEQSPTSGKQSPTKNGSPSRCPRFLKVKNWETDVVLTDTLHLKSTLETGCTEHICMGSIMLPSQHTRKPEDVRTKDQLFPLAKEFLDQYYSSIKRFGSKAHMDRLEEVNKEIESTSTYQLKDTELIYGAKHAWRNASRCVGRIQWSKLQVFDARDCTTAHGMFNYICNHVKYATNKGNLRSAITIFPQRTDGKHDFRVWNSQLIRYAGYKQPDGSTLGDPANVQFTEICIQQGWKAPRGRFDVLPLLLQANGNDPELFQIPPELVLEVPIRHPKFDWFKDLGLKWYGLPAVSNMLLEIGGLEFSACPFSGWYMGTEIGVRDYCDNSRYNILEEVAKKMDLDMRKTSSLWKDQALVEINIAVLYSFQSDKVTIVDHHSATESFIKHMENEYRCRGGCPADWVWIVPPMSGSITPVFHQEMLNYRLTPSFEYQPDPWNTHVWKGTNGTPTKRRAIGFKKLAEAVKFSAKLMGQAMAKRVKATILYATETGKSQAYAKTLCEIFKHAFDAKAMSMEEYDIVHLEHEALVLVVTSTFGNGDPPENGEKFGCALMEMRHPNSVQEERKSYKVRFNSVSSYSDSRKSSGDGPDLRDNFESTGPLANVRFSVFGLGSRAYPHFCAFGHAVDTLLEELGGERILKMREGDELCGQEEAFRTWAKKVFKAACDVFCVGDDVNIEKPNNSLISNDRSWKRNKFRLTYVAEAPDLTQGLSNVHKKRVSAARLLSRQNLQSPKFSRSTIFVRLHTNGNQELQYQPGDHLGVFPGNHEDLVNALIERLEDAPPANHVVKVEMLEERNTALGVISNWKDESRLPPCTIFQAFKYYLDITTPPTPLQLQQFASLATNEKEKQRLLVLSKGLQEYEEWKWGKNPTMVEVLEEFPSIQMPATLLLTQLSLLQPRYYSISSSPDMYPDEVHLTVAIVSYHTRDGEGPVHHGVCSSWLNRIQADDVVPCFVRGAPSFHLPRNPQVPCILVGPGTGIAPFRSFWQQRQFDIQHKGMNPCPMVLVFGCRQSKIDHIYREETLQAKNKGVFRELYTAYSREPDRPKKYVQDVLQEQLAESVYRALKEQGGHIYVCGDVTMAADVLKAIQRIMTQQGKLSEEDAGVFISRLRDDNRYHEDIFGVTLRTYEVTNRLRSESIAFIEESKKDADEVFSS

[4] = molecular target: T1, Nitric oxide synthase, inducible; test: Compound was evaluated as nitric oxide producing substrate of mouse Inducible nitric oxide synthase using the Griess assay; NA means Not active
Nitric oxide synthase 3 [5] = molecular target: T2, Nitric oxide synthase 3; test: Inhibition of bovine endothelial nitric oxide synthase catalyzed [14C]L-citrulline production at a compound concentration of 1 mM in presence of 50 uM L-arginine
Nitric oxide synthase 1 [6] = molecular target: T3, Nitric oxide synthase 1; test: Inhibition of rat neuronal nitric oxide synthase catalyzed [14C]L-citrulline production at a compound concentration of 1 mM in presence of 50 uM L-arginine

| SMILES | NO-producing substrate activity (Nitric oxide synthase 3 [2]) | NO production as substrate (Nitric oxide synthase 1 [3]) | NO production as substrate [4] | IC50 (Nitric oxide synthase 3 [5]) [µM] | IC50 [1] [µM] | also measured |
| --- | --- | --- | --- | --- | --- | --- |
| c1c[nH]cn1 [IMIDAZOLE] | – | – | – | – | 40 | – |
| c1ccc(-c2ncc[nH]2)cc1 [2-PHENYLIMIDAZOLE] | – | – | – | – | > 1000 | – |
| N=C(N)NCc1c[nH]cn1 | Not Active | Not Active | Not Active | – | – | – |
| N=C(N)NCCc1c[nH]cn1 | Not Active | Not Active | Not Active | – | – | – |
| N=C(N)NCCc1ncc[nH]1 | Not Active | Not Active | Not Active | – | – | – |
| N=C(N)NCc1ncc[nH]1 | – | – | – | – | 138 | – |

Now from value to compound, other results behind:

| NO-producing substrate activity (Nitric oxide synthase 3 [2]) | NO production as substrate (Nitric oxide synthase 1 [3]) | NO production as substrate [4] | IC50 (Nitric oxide synthase 3 [5]) [µM] | SMILES | IC50 [1] [µM] | also measured |
| --- | --- | --- | --- | --- | --- | --- |
| – | – | – | 1090 | N/C(=N\CCC[C@@H](N)C(=O)O)NCCc1c[nH]cn1 | – | – |
| – | – | – | 629 | N/C(=N\CCC[C@@H](N)C(=O)O)NCCc1ncc[nH]1 | – | IC50 (Nitric oxide synthase 1 [6]): 1490 µM |
| – | – | – | 347 | N/C(=N\CCC[C@@H](N)C(=O)O)NCc1ncc[nH]1 | – | IC50 (Nitric oxide synthase 1 [6]): 1590 µM |
| Not Active | Not Active | Not Active | – | N/C(=N\CCC[C@H](N)C(=O)O)NCc1c[nH]cn1 | – | – |
